The record followed here is patent US8937167B2 (Washington University, priority 2009, dated 2015).

Entries after “also recorded” stand apart in the source; their conditions may differ. Like-named read-outs stand apart in the source and are kept apart here.

One assay deals with UTI89. Briefly: Enumeration of bladder IBCs by LacZ staining in infected mice. Type of assay: in vivo, E. coli (UPEC); host C3H/HeN mouse. Particulars: UTI89 pre-incubated with mannoside (as little as 10 μM); 6 hpi. As for the experimental part:
After invasion, UPEC are able to rapidly replicate to form IBCs, thus dramatically expanding in numbers. After maturation of the IBC, bacteria are able to disperse from the biomass and spread to neighboring cells to expand the buildup in bacterial numbers via next generation IBC. The ability of mannosides to block IBC formation was evaluated based on LacZ staining of whole mount bladders, a protocol developed to enumerate IBCs. Whole bladder titers were also determined by quantifying colony forming units (CFUs) at 6 hours post-infection and later time points as test compounds were further developed.
Enumeration of bladder IBCs. For bacterial pretreatment experiments, mannoside was added to the bacterial suspension and incubated for 20 min. For animal pretreatment experiments, mannoside ZFH-2056 was administered either IP (5 mg/kg) or orally (100 mg/kg) 30 min prior to inoculation with UTI89. To accurately count the number of IBCs, mice were sacrificed 6 hpi and bladders were aseptically removed, bisected, splayed on silicone plates and fixed in 2% paraformaldehyde (v/v). IBCs, readily discernable as punctate violet spots, were quantified by LacZ staining of whole bladders.
For animal pretreatment experiments, mannoside ZFH-2056 was administered either IP (5 mg/kg) or orally (100 mg/kg) 30 min prior to inoculation with UTI89. To accurately count the number of IBCs, mice were sacrificed 6 hpi and bladders were aseptically removed, bisected, splayed on silicone plates and fixed in 2% paraformaldehyde (v/v). IBCs, readily discernable as punctate violet spots, were quantified by LacZ staining of whole bladders.

The next assay deals with UTI89 biofilm. Briefly: UTI89 type 1 dependent biofilm formation (inhibition/prevention) assay on PVC, crystal violet. In kind it is cell-based, uropathogenic E. coli UTI89. An outline of the steps:
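Prevention: UTI89 grown in LB in PVC wells at 23° C with mannoside at varying concentrations for 48 h, then crystal violet stained and quantified. Disruption: 24 h UTI89 biofilm, mannoside added, grown 16 h more, then crystal violet.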

Assay [1] has as its target T1, FimH lectin domain (residues 1-158 of UPEC J96 FimH) (Escherichia coli, UniProt P08191).
T1 construct: made in house
In kind it is binding. The following applies: Table 20; compound at 100 μM.

T1 sequence (P08191 22-179): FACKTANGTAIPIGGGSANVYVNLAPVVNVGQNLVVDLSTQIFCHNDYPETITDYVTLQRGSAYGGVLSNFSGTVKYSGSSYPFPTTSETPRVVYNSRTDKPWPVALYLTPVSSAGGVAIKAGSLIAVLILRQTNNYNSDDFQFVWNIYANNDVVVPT

With `CNC(=O)c1cc(C(=O)NC)cc(-c2ccc(O[C@H]3O[C@H](CO)[C@@H](O)[C@H](O)[C@@H]3O)cc2)c1` [ZFH-2056], the IBC formation result with UTI89 was “most significant reduction in IBCs; also recorded: reduced IBC formation”. For the same compound, the IC50 in the assay with UTI89 biofilm (read-out: biofilm inhibition IC50) worked out at 740 nM.
As to `COC(=O)c1cccc(-c2ccc(O[C@H]3O[C@H](CO)[C@@H](O)[C@H](O)[C@@H]3O)cc2)c1` [Compound 1, phenyl mannoside, reference compound], the IC50 with UTI89 biofilm (Escherichia coli, read-out: Biofilm Prevention IC50) was 940 nM. Moreover, the “DSF Melting Temp.” value in assay [1] was 73.39 °C.

A word on the IC50: it is the point on the concentration scale where inhibition reaches its midpoint.
